# From patent US12102659B2, “Methods for the prevention or treatment of heart failure” (Cornell University, priority 2009, dated 2024)
# How the values were obtained:
# [1] = system: several mammalian cell types; settings: energy-independent manner; cited from earlier work
# neonatal cardiomyocytes = assay: Mitosox flow cytometry of mitochondrial ROS in neonatal cardiomyocytes stimulated with Ang II; assay type: cell-based, mouse
# Procedure: Neonatal mouse cardiomyocyte culture and flow cytometry. Ventricles from mouse neonates younger than 72 hours were dissected, minced, and enzymatically digested with Blendzyme 4 (45 μg/ml, Roche). After enzymatic digestion, cardiomyocytes were enriched using differential pre-plating for 2 hours, then seeded on fibronectin-coated culture dishes for 24 hours in DMEM (Gibco), with 20% Fetal Bovine Serum (Sigma) and 25 μM Arabinosylcytosine (Sigma). Cardiomyocytes were stimulated with Angiotensin II (1 μM) for 3 hours in serum-free DMEM containing 0.5% insulin transferrin-selenium (Sigma), 2 mM glutamine, and 1 mg/ml of BSA. Cardiomyocytes were simultaneously treated with either of the following: SS-31 (1 nM), N-acetyl cysteine (NAC: 0.5 mM), or PBS control. To measure mitochondrial superoxide concentration, Mitosox (5 μM) was incubated for 30 min at 37° C. to load cardiomyocytes, followed by 2 washes, with Hanks Balanced Salt Solution. Samples were analyzed using excitation/emission of 488/625 nm by flow cytometry. Flow data was analyzed using FCS Express (De Novo Software, Los Angeles, CA), and presented as histogram distributions of Mitosox fluorescence intensity.
# [2] = system: ANP, Collagen 1a2, PGC1-α, TFAM, NRF-1, NRF-2; assay: Quantitative PCR of cardiac gene expression after 4 weeks of Ang II; assay type: in vivo, mouse
# Procedure: (§1) Mouse experiments, drug delivery, echocardiography and blood pressure measurement. All animal experiments were approved by the University of Washington Institutional Animal Care and Use Committee. C57BL6 mice were housed in a barrier specific pathogen-free facility. Six to ten mice were included in each experimental group (Saline, Ang II, Ang II+SS-31, WT, Gαq, Gαq+SS-31). A pressor dose of Ang II (1.1 mg/kg/d) was continuously administered for 4 weeks using subcutaneous Alzet 1004 osmotic minipumps, with or without addition of SS-31 (3 mg/kg/d). Echocardiography was performed at baseline and after 4 weeks of pump implantation using a Siemens Acuson CV-70 equipped with a 13 MHz probe. Under 0.5% isoflurane to reduce agitation, standard M-mode, conventional and Tissue Doppler images were taken, and functional calculations were performed according to American Society of Echocardiography guidelines. MP1 was calculated as the ratio of the sum of isovolemic contraction and relaxation time to LV ejection time. An increase in MPI is an indication that a greater fraction of systole is spent to cope with the pressure changes during the isovolemic phases. As a reference for SS-31 peptide effect in Ang II treated mice, a genetic mouse model of Rosa-26 inducible-mCAT was included, in which mitochondrial catalase was overexpressed two weeks before Ang II treatment.
# Quantitative PCR. Gene expression was quantified by quantitative real time PCR using an Applied Biosystems 7900 themocycler with Taqman Gene Expression Assays on Demand, which included: PGC1-α (Mm00731216), TFAM (Mm00447485), NRF-1 (Mm00447996), NRF-2 (Mm00487471), Collagen 1a2 (Mm00483937), and ANP (Mm01255747). Expression assays were normalized to 18S RNA.
# C57BL6 mice [3] = assay: Quantitative pathology of ventricular fibrosis (Masson Trichrome) after 4 weeks of Ang II; assay type: in vivo, mouse; settings: 4 weeks of Ang II
# Procedure: as §1, with “As a reference for SS-31 peptide effect in Ang II treated mice, a genetic mouse model of Rosa-26 inducible-mCAT was included, in which mitochondrial catalase was overexpressed two weeks before Ang II treatment.” left out
# Quantitative Pathology. […] Quantitative analysis of fibrosis was performed by measuring the percentage of blue-staining fibrotic tissue relative to the total cross-sectional area of the ventricles.
# C57BL6 mice [4] = assay: Blood pressure by intravascular telemetry after pressor dose of Ang II; assay type: in vivo, mouse
# Procedure: as §1
# Blood pressure was measured in a separate group of mice by telemetry using an intravascular catheter PA-C10 (DSI, MN), in which measurement was performed every three hours starting from 2 days before pump placement until 2 days after Ang pump placement.
# NADPH oxidase = NADPH oxidase activity in ventricular protein extract after 4 weeks of Ang II; assay type: in vivo, mouse; settings: 4 weeks Ang II (vs. saline) or Ang II + SS-31 (vs. Ang II)
# Procedure: as §1, with “An increase in MPI is an indication that a greater fraction of systole is spent to cope with the pressure changes during the isovolemic phases. As a reference for SS-31 peptide effect in Ang II treated mice, a genetic mouse model of Rosa-26 inducible-mCAT was included, in which mitochondrial catalase was overexpressed two weeks before Ang II treatment.” left out
# NADPH Oxidase activity. […] In brief, […] of ventricular protein extract was incubated with dihydroethidium (DHE, 10 μM), sperm DNA (1.25 μg/ml), and NADPH (50 μM) in PBS/DTPA (containing 100 μM DTPA), The assay was incubated at 37° C. in the dark for 30 min and the fluorescence was detected using excitation/emission of 490/580 nm.
# [5] = system: cleaved caspase-3, phospho-p38 MAP kinase, p38; assay: Western immunoblots of cardiac protein extracts after 4 weeks of Ang II; assay type: in vivo, mouse
# Procedure: as §1
# Western Immunoblots. Cardiac protein extracts were prepared by homogenization in lysis buffer containing protease and phosphatase inhibitors on ice (1.5 mM KCl, 50 mM Tris HCl, 0.125% Sodium deoxycholate, 0.375% Triton X 100, 0.15% NP40, 3 mM EDTA). The samples were sonicated and centrifuged at 10,000 g for 15 min in 4° C. The supernatant was collected and the concentration was determined using a BCA assay (Pierce Thermo Scientific, Rockford, IL). Total protein (25 μg) was separated on NuPAGE 4-12% Bis-Tris gel (Invitrogen) and transferred to 0.45 μm PVDF membrane (Millipore), and then blocked in 5% non-fat dry milk in Tris-buffer solution with 0.1% Tween-20 for 1 hour. Primary antibodies were incubated overnight, and secondary antibodies were incubated for 1 hour. The primary antibodies included: rabbit monoclonal anti-cleaved caspase-3 (Cell Signaling), mouse monoclonal anti-GAPDH (Millipore), rabbit polyclonal phospho-p38 MAP kinase (Cell Signaling), and mouse monoclonal anti-p38 (Santa Cruz Biotechnology). The enhanced chemiluminescence method (Thermo Scientific) was used for detection. Image Quant ver.2.0 was used to quantified the relative band density as a ratio to GAPDH (internal control). All samples were normalized to the same cardiac protein sample.
# [6] = system: mitochondrial protein carbonyl groups; assay: Cardiac mitochondrial protein carbonyl ELISA after 4 weeks of Ang II; assay type: in vivo, mouse; settings: 4 weeks Ang II (vs. saline) or Ang II + SS-31 (vs. Ang II)
# Procedure: as §1, with “treatment. […]” for “treatment.”
# C57BL6 mice [7] = assay: Ang II-induced cardiomyopathy: echocardiography and heart weight after 4 weeks; assay type: in vivo, mouse
# Procedure: as §1
# [8] = 4 weeks Ang II (vs. saline) or Ang II + SS-31 (vs. Ang II)
# [9] = Ang II 1.1 mg/kg/d subcutaneous pump, FIG. 2B
# [10] = 4 weeks Ang II 1.1 mg/kg/d with or without SS-31 3 mg/kg/d
# [11] = 4 weeks of Ang II, in the presence or absence of SS-31
compound,measurement,setting,value
"2′,6′-Dmt-D-Arg-Phe-Lys-NH2 [SS-02]",penetration of the plasma membrane,[1],readily penetrates the plasma membrane
CC(=O)N[C@@H](CS)C(=O)O [N-acetyl cysteine],effect on Ang II-induced Mitosox fluorescence / mitochondrial ROS,neonatal cardiomyocytes; SS-31 1 nM or NAC 0.5 mM together with Ang II 1 μM for 3 hours,did not show any effect
Angiotensin II [Ang II],"expression of PGC-1α and downstream target genes TFAM, NRF-1 and NRF-2",[2]; [8],induced the expression
same,increase in ANP gene expression,[2]; 4 weeks of Ang II,~15 fold
same,increase in Coll1a2 gene expression,[2]; 4 weeks of Ang II,~2.5 fold
same,increase in ventricular fibrosis (blue staining on trichrome),C57BL6 mice [3],greater than 3 fold
same,increase in systolic and diastolic blood pressure above baseline,C57BL6 mice [4]; Ang II 1.1 mg/kg/d,25-28 mm Hg
same,increase in diastolic pressure,C57BL6 mice [4]; [9],24.8 mm Hg
same,increase in systolic blood pressure,C57BL6 mice [4]; [9],27.2 mm Hg
same,diastolic blood pressure after Ang II,"C57BL6 mice [4]; Ang II 1.1 mg/kg/d, baseline 94.5±3.5",119.3±4.0 mm Hg
same,cardiac NADPH oxidase activity,NADPH oxidase,significantly increased
same,phosphorylation of p38 MAPK,[5]; [8],increased
same,increase in cleaved (activated) caspase-3 in left ventricular tissue,[5]; 4 weeks of Ang II,approximately 3 fold
same,protein levels of p38 MAP kinase,"[5]; 4 weeks of Ang II, FIG. 6C",increased
same,ventricular mitochondrial protein carbonyl content,[6],significantly increased
same,Ea/Aa,C57BL6 mice [7]; [10],0.723±0.15
same,LVMI,C57BL6 mice [7]; [10],6.32 ± 0.39 mg/g
same,heart weight (normalized to tibia length),"C57BL6 mice [7]; 4 weeks Ang II with or without SS-31, saline 5.3±0.18",7.69±0.20 mg/mm
same,increase in heart weights above saline treated control hearts,C57BL6 mice [7]; 4 weeks of Ang II,45%
same,decline in Ea/Aa (diastolic function),C57BL6 mice [7]; 4 weeks of Ang II 1.1 mg/kg/d,~35%
same,increase in left ventricular mass index (LVMI) compared with baseline,C57BL6 mice [7]; 4 weeks of Ang II 1.1 mg/kg/d,approximately 2 fold
same,change in LV end diastolic diameter (LVEDD),C57BL6 mice [7]; [11],no change
same,"change in fractional shortening (FS, systolic function)",C57BL6 mice [7]; [11],no change
same,increase of Mitosox fluorescence (indicator of mitochondrial superoxide),"neonatal cardiomyocytes; Ang II 1 μM, 3 hours, neonatal cardiomyocytes",approximately 2 fold
